# Results from publication PMC5218480 (PLoS ONE, 2017).
# System: MV-4-11 cells
# Assay: Gene expression microarray analysis (Affymetrix PrimeView) and GSEA
# Assay type: cell-based, human
# Design: RFU PODN (11730768_x_at) / Fold change /veh PODN (11730768_x_at) / RFU LINC00158 (11744669_a_at) / Fold change /veh LINC00158 (11744669_a_at) / RFU DUSP10 (11751237_a_at) / Fold change /veh DUSP10 (11751237_a_at) / RFU ID3 (11757404_x_at) / Fold change /veh ID3 (11757404_x_at) / RFU PLEKHG5 (11737974_s_at) / Fold change /veh PLEKHG5 (11737974_s_at) / RFU LRRC4B (11730491_at) / Fold change /veh LRRC4B (11730491_at) / RFU GIMAP4 (11747438_a_at) / Fold change /veh GIMAP4 (11747438_a_at) / RFU KRT8 (11758183_x_at) / Fold change /veh KRT8 (11758183_x_at) / RFU CNN1 (11734310_a_at) / Fold change /veh CNN1 (11734310_a_at) / RFU VPS37D (11726825_at) / Fold change /veh VPS37D (11726825_at) / RFU C10orf10 (11716522_x_at) / Fold change /veh C10orf10 (11716522_x_at) / RFU KIR2DL2 /// KIR2DL4 /// KIR2DL5A /// KIR2DL5B /// KIR2DS1 /// KIR2DS2 /// KIR2DS3 /// KIR2DS4 /// KIR3DL3 /// KIR3DL3 /// KIR3DS1 (11738374_at) / Fold change /veh KIR2DL2 /// KIR2DL4 /// KIR2DL5A /// KIR2DL5B /// KIR2DS1 /// KIR2DS2 /// KIR2DS3 /// KIR2DS4 /// KIR3DL3 /// KIR3DL3 /// KIR3DS1 (11738374_at) / RFU C1QL1 (11718748_at) / Fold change /veh C1QL1 (11718748_at) / RFU TMPRSS4 (11747572_a_at) / Fold change /veh TMPRSS4 (11747572_a_at) / RFU HAMP (11756126_x_at) / Fold change /veh HAMP (11756126_x_at) / RFU RNFT2 (11725882_a_at) / Fold change /veh RNFT2 (11725882_a_at) / RFU NR4A2 (11747474_a_at) / Fold change /veh NR4A2 (11747474_a_at) / RFU ABCC12 (11746883_a_at) / Fold change /veh ABCC12 (11746883_a_at) / RFU TMEM136 (11760407_x_at) / Fold change /veh TMEM136 (11760407_x_at) / RFU CLDN22 /// WWC2 (11732394_at) / Fold change /veh CLDN22 /// WWC2 (11732394_at) / RFU HLA-DPB1 (11760878_x_at) / Fold change /veh HLA-DPB1 (11760878_x_at) / RFU SPINT1 (11716480_a_at) / Fold change /veh SPINT1 (11716480_a_at) / RFU GAP43 (11754022_s_at) / Fold change /veh GAP43 (11754022_s_at) / RFU A4GNT (11735810_at) / Fold change /veh A4GNT (11735810_at) / RFU PRB3 (11715151_x_at) / Fold change /veh PRB3 (11715151_x_at) / RFU TUBB4B (11761932_at) / Fold change /veh TUBB4B (11761932_at) / RFU CAPN14 (11732068_a_at) / Fold change /veh CAPN14 (11732068_a_at) / RFU TMCC2 (11721928_a_at) / Fold change /veh TMCC2 (11721928_a_at) / RFU IRGQ (11745062_a_at) / Fold change /veh IRGQ (11745062_a_at) / RFU FAM174B (11720279_a_at) / Fold change /veh FAM174B (11720279_a_at) / RFU TMPRSS4 (11748680_a_at) / Fold change /veh TMPRSS4 (11748680_a_at) / RFU FAM212B (11763350_a_at) / Fold change /veh FAM212B (11763350_a_at) / RFU PLEKHG5 (11743358_a_at) / Fold change /veh PLEKHG5 (11743358_a_at) / RFU ZSCAN30 (11745921_a_at) / Fold change /veh ZSCAN30 (11745921_a_at) / RFU CMKLR1 (11741424_a_at) / Fold change /veh CMKLR1 (11741424_a_at) / RFU LOC101060620 /// MAPK8IP1 (11723275_at) / Fold change /veh LOC101060620 /// MAPK8IP1 (11723275_at) / RFU SPTSSB (11747773_x_at) / Fold change /veh SPTSSB (11747773_x_at) / RFU PRSS12 (11739890_at) / Fold change /veh PRSS12 (11739890_at) / RFU BIN1 (11741810_x_at) / Fold change /veh BIN1 (11741810_x_at) / RFU WNT11 (11732464_a_at) / Fold change /veh WNT11 (11732464_a_at) / RFU C10orf10 (11716521_a_at) / Fold change /veh C10orf10 (11716521_a_at) / RFU C5orf56 (11738089_at) / Fold change /veh C5orf56 (11738089_at) / RFU CYB561 (11721691_x_at) / Fold change /veh CYB561 (11721691_x_at) / RFU ANKRD19P (11752326_a_at) / Fold change /veh ANKRD19P (11752326_a_at) / RFU OR2T12 /// OR2T33 /// OR2T8 (11738714_s_at) / Fold change /veh OR2T12 /// OR2T33 /// OR2T8 (11738714_s_at) / RFU VCAN (11748164_a_at) / Fold change /veh VCAN (11748164_a_at) / RFU JSRP1 (11732532_at) / Fold change /veh JSRP1 (11732532_at) / RFU KRTAP10-11 (11738290_x_at) / Fold change /veh KRTAP10-11 (11738290_x_at) / RFU MYO3A (11730013_a_at) / Fold change /veh MYO3A (11730013_a_at) / RFU EBF3 (11725865_a_at) / Fold change /veh EBF3 (11725865_a_at) / RFU CAMK2N1 (11719241_x_at) / Fold change /veh CAMK2N1 (11719241_x_at) / RFU C5orf56 (11738088_a_at) / Fold change /veh C5orf56 (11738088_a_at) / RFU OLFML3 (11715873_a_at) / Fold change /veh OLFML3 (11715873_a_at) / RFU LOC100653217 /// NTM (11731650_a_at) / Fold change /veh LOC100653217 /// NTM (11731650_a_at) / RFU MAPK11 (11762145_a_at) / Fold change /veh MAPK11 (11762145_a_at) / RFU FIZ1 (11724087_x_at) / Fold change /veh FIZ1 (11724087_x_at) / RFU OASL (11726364_x_at) / Fold change /veh OASL (11726364_x_at) / RFU SOX15 (11748057_x_at) / Fold change /veh SOX15 (11748057_x_at) / RFU CD79A (11719716_a_at) / Fold change /veh CD79A (11719716_a_at) / RFU HIST1H1D (11736915_at) / Fold change /veh HIST1H1D (11736915_at) / RFU CASKIN2 (11723855_a_at) / Fold change /veh CASKIN2 (11723855_a_at) / RFU LOC730098 (11760151_x_at) / Fold change /veh LOC730098 (11760151_x_at) / RFU OR4N2 (11742367_at) / Fold change /veh OR4N2 (11742367_at) / RFU PRRT2 (11749266_a_at) / Fold change /veh PRRT2 (11749266_a_at) / RFU SNX32 (11753110_a_at) / Fold change /veh SNX32 (11753110_a_at) / RFU CDHR5 (11726645_a_at) / Fold change /veh CDHR5 (11726645_a_at) / RFU RCAN1 (11760418_a_at) / Fold change /veh RCAN1 (11760418_a_at) / RFU FAM167A (11723789_a_at) / Fold change /veh FAM167A (11723789_a_at) / RFU FAM26E (11764081_at) / Fold change /veh FAM26E (11764081_at) / RFU ISYNA1 (11749810_s_at) / Fold change /veh ISYNA1 (11749810_s_at) / RFU ACY1 (11761880_at) / Fold change /veh ACY1 (11761880_at) / RFU 11764098_at / Fold change /veh 11764098_at / RFU SAMD14 (11745864_x_at) / Fold change /veh SAMD14 (11745864_x_at) / RFU NPB (11741838_a_at) / Fold change /veh NPB (11741838_a_at) / RFU TMPRSS6 (11731388_a_at) / Fold change /veh TMPRSS6 (11731388_a_at) / RFU KRTAP10-2 (11738614_at) / Fold change /veh KRTAP10-2 (11738614_at) / RFU ARHGAP8 /// PRR5-ARHGAP8 (11727945_x_at) / Fold change /veh ARHGAP8 /// PRR5-ARHGAP8 (11727945_x_at) / RFU KRTAP5-7 /// NADSYN1 (11734609_at) / Fold change /veh KRTAP5-7 /// NADSYN1 (11734609_at) / RFU RASL12 (11751679_a_at) / Fold change /veh RASL12 (11751679_a_at) / RFU CDKN2B (11736163_a_at) / Fold change /veh CDKN2B (11736163_a_at) / RFU PRF1 (11729649_at) / Fold change /veh PRF1 (11729649_at) / RFU, ZNF638 /// ZNF638-IT1 / Fold change vs veh, ZNF638 /// ZNF638-IT1 / RFU, PANK3 / Fold change vs veh, PANK3 / RFU, SH3YL1 / Fold change vs veh, SH3YL1 / RFU, ZEB2 / Fold change vs veh, ZEB2 / RFU, NRIP1 / Fold change vs veh, NRIP1 / RFU, PTTG1IP / Fold change vs veh, PTTG1IP / RFU, CAPN2 / Fold change vs veh, CAPN2 / RFU, MED14 / Fold change vs veh, MED14 / RFU, SNORA58 / Fold change vs veh, SNORA58 / RFU, C1orf63 / Fold change vs veh, C1orf63 / RFU, LRRFIP1 / Fold change vs veh, LRRFIP1 / RFU, NDUFAF7 / Fold change vs veh, NDUFAF7 / RFU, SLC12A2 / Fold change vs veh, SLC12A2 / RFU, IBTK / Fold change vs veh, IBTK / RFU, ESF1 / Fold change vs veh, ESF1 / Fold change vs veh, TMEM50B / RFU, TAOK1 / Fold change vs veh, TAOK1 / RFU, ACBD3 / Fold change vs veh, ACBD3 / RFU, TMA16 / Fold change vs veh, TMA16 / RFU, RWDD3 / Fold change vs veh, RWDD3 / RFU, BCAT1 / Fold change vs veh, BCAT1 / RFU, EDEM3 / Fold change vs veh, EDEM3 / RFU, TMEM33 / Fold change vs veh, TMEM33 / RFU, WDR75 / Fold change vs veh, WDR75 / RFU, AHCTF1 / Fold change vs veh, AHCTF1 / RFU, TFRC / Fold change vs veh, TFRC / RFU, ZDHHC17 / Fold change vs veh, ZDHHC17 / RFU, NOM1 / Fold change vs veh, NOM1 / RFU, ARL8B / Fold change vs veh, ARL8B / RFU, ZBTB11 / Fold change vs veh, ZBTB11 / RFU, TAMM41 / Fold change vs veh, TAMM41 / RFU, KIAA1704 /// LOC100996395 / Fold change vs veh, KIAA1704 /// LOC100996395 / RFU, ING1 / Fold change vs veh, ING1 / RFU, TRMT61B / Fold change vs veh, TRMT61B / RFU, FUBP3 / Fold change vs veh, FUBP3 / RFU, TP53 / Fold change vs veh, TP53 / RFU, TNKS2 / Fold change vs veh, TNKS2 / RFU, ZFP14 / Fold change vs veh, ZFP14 / RFU, ACTR2 / Fold change vs veh, ACTR2 / RFU, PPP3R1 / Fold change vs veh, PPP3R1 / RFU, PIK3R1 / Fold change vs veh, PIK3R1 / RFU, HNRNPA1 / Fold change vs veh, HNRNPA1 / RFU, RNF170 / Fold change vs veh, RNF170 / RFU, ZNF28 / Fold change vs veh, ZNF28 / RFU, RNGTT / Fold change vs veh, RNGTT / RFU, OGT / Fold change vs veh, OGT / RFU, BRD1 / Fold change vs veh, BRD1 / RFU, MARS / Fold change vs veh, MARS / RFU, ZNF655 / Fold change vs veh, ZNF655 / RFU, FAHD1 / Fold change vs veh, FAHD1 / RFU, BDP1 / Fold change vs veh, BDP1 / RFU, LRRCC1 / Fold change vs veh, LRRCC1 / RFU, ARID1A / Fold change vs veh, ARID1A / RFU, ZNF146 / Fold change vs veh, ZNF146 / RFU, ZNF330 / Fold change vs veh, ZNF330 / RFU, GPN3 / Fold change vs veh, GPN3 / RFU, C9orf123 / Fold change vs veh, C9orf123 / RFU, N4BP2L2 / Fold change vs veh, N4BP2L2 / RFU, ARFIP1 / Fold change vs veh, ARFIP1 / RFU, FAM179B / Fold change vs veh, FAM179B / RFU, BCL10 / Fold change vs veh, BCL10 / RFU, UHRF1BP1L / Fold change vs veh, UHRF1BP1L / RFU, BET1 / Fold change vs veh, BET1 / RFU, CNOT2 / Fold change vs veh, CNOT2 / RFU, ZNF268 / Fold change vs veh, ZNF268 / Fold change vs veh, ZNF507 / RFU, DGCR2 / Fold change vs veh, DGCR2 / RFU, WDSUB1 / Fold change vs veh, WDSUB1 / Fold change vs veh, HSP90B1 /// MIR3652 / RFU, ADSS / Fold change vs veh, ADSS / RFU, GK / Fold change vs veh, GK / RFU, ZNF148 / Fold change vs veh, ZNF148 / RFU, TAF9 / Fold change vs veh, TAF9 / RFU, SLC1A5 / Fold change vs veh, SLC1A5 / RFU, SLMO2 / Fold change vs veh, SLMO2 / RFU, ABCC4 / Fold change vs veh, ABCC4 / RFU, LOC101060439 /// RAP1B / Fold change vs veh, LOC101060439 /// RAP1B / RFU, RFX7 / Fold change vs veh, RFX7 / RFU, GTPBP10 / Fold change vs veh, GTPBP10 / RFU, CNEP1R1 / Fold change vs veh, CNEP1R1 / RFU, BIVM-ERCC5 /// ERCC5 / Fold change vs veh, BIVM-ERCC5 /// ERCC5 / RFU, ILF3 / Fold change vs veh, ILF3 / RFU 11762660_at / Fold change /veh 11762660_at / RFU VCAN (11757783_s_at) / Fold change /veh VCAN (11757783_s_at) / RFU DDX43 (11728927_at) / Fold change /veh DDX43 (11728927_at) / RFU KRT8 (11758188_x_at) / Fold change /veh KRT8 (11758188_x_at) / RFU NKD1 (11759106_at) / Fold change /veh NKD1 (11759106_at) / RFU SRD5A1 (11742802_a_at) / Fold change /veh SRD5A1 (11742802_a_at) / RFU TPSAB1 /// TPSB2 (11721975_s_at) / Fold change /veh TPSAB1 /// TPSB2 (11721975_s_at) / RFU GSTM3 (11746129_a_at) / Fold change /veh GSTM3 (11746129_a_at) / RFU IL23R (11737362_x_at) / Fold change /veh IL23R (11737362_x_at) / RFU TMEM51 (11727254_a_at) / Fold change /veh TMEM51 (11727254_a_at) / RFU PIWIL2 (11732686_x_at) / Fold change /veh PIWIL2 (11732686_x_at) / RFU ORM1 (11744905_x_at) / Fold change /veh ORM1 (11744905_x_at) / RFU CCDC152 (11743942_at) / Fold change /veh CCDC152 (11743942_at) / RFU ECM1 (11717891_a_at) / Fold change /veh ECM1 (11717891_a_at) / RFU IL23R (11748794_a_at) / Fold change /veh IL23R (11748794_a_at) / RFU TNFAIP8L3 (11732012_x_at) / Fold change /veh TNFAIP8L3 (11732012_x_at) / RFU MBOAT4 (11741988_at) / Fold change /veh MBOAT4 (11741988_at) / RFU 11764193_at / Fold change /veh 11764193_at / RFU TMEM53 (11763286_at) / Fold change /veh TMEM53 (11763286_at) / RFU MAGEB2 (11727129_at) / Fold change /veh MAGEB2 (11727129_at) / RFU TMEM200A (11744735_a_at) / Fold change /veh TMEM200A (11744735_a_at) / RFU CCDC152 (11751479_a_at) / Fold change /veh CCDC152 (11751479_a_at) / RFU FAM211A (11726209_a_at) / Fold change /veh FAM211A (11726209_a_at) / RFU RGS16 (11746705_a_at) / Fold change /veh RGS16 (11746705_a_at) / RFU VCAN (11755009_s_at) / Fold change /veh VCAN (11755009_s_at) / RFU RHOB (11743442_s_at) / Fold change /veh RHOB (11743442_s_at) / RFU RGS16 (11720943_a_at) / Fold change /veh RGS16 (11720943_a_at) / RFU RGS16 (11720944_at) / Fold change /veh RGS16 (11720944_at) / RFU, VPS4B / Fold change vs veh, VPS4B / RFU, CREB1 / Fold change vs veh, CREB1 / RFU, DNAJC13 / Fold change vs veh, DNAJC13 / RFU, GNAQ / Fold change vs veh, GNAQ / RFU, CDK5R1 / Fold change vs veh, CDK5R1 / RFU, ZRANB3 / Fold change vs veh, ZRANB3 / RFU, CUL4A / Fold change vs veh, CUL4A / RFU, CCNY / Fold change vs veh, CCNY / RFU, UFL1 / Fold change vs veh, UFL1 / RFU, COG3 / Fold change vs veh, COG3 / RFU, DIAPH2 / Fold change vs veh, DIAPH2 / RFU, SKA2 / Fold change vs veh, SKA2 / RFU, AFF3 / Fold change vs veh, AFF3 / RFU, LMF1 / Fold change vs veh, LMF1 / RFU, IPO11 / Fold change vs veh, IPO11 / RFU, DFFB / Fold change vs veh, DFFB / RFU, FOXP1 / Fold change vs veh, FOXP1 / RFU, CARD8 / Fold change vs veh, CARD8 / RFU, STRN3 / Fold change vs veh, STRN3 / RFU, ADK / Fold change vs veh, ADK / RFU, RASSF2 / Fold change vs veh, RASSF2 / RFU, WIPF1 / Fold change vs veh, WIPF1 / RFU, LARP1B / Fold change vs veh, LARP1B / RFU, RASA1 / Fold change vs veh, RASA1 / RFU, RB1 / Fold change vs veh, RB1 / RFU, PPFIA1 / Fold change vs veh, PPFIA1 / RFU, MAT2A / Fold change vs veh, MAT2A / RFU, CCT5 / Fold change vs veh, CCT5 / RFU, WDR92 / Fold change vs veh, WDR92 / RFU, CUX1 / Fold change vs veh, CUX1 / RFU, TTC7A / Fold change vs veh, TTC7A / RFU, TMEM135 / Fold change vs veh, TMEM135 / RFU, DEPTOR / Fold change vs veh, DEPTOR / RFU, CPM / Fold change vs veh, CPM / RFU, DNAJB6 / Fold change vs veh, DNAJB6 / RFU, CACNA2D3 / Fold change vs veh, CACNA2D3 / RFU, DTX4 / Fold change vs veh, DTX4 / RFU, TFCP2 / Fold change vs veh, TFCP2 / RFU, GMCL1 /// GMCL1P1 / Fold change vs veh, GMCL1 /// GMCL1P1 / RFU, AEBP2 / Fold change vs veh, AEBP2 / RFU, SNHG1 /// SNORD22 /// SNORD25 /// SNORD26 /// SNORD27 /// SNORD28 /// SNORD29 /// SNORD31 / Fold change vs veh, SNHG1 /// SNORD22 /// SNORD25 /// SNORD26 /// SNORD27 /// SNORD28 /// SNORD29 /// SNORD31 / Fold change (Aza/veh), C12orf56 (ProbeSet 11735607_a_at) / Fold change (ACY-1035/veh), C12orf56 (ProbeSet 11735607_a_at) / Fold change (Aza/veh), FGFR1OP (ProbeSet 11751329_s_at) / Fold change (ACY-1035/veh), FGFR1OP (ProbeSet 11751329_s_at) / Fold change (Aza/veh), VPS36 (ProbeSet 11739960_a_at) / Fold change (ACY-1035/veh), VPS36 (ProbeSet 11739960_a_at) / RFU SYPL1 (11715823_x_at) / Fold change /veh SYPL1 (11715823_x_at) / RFU IGFBP7 (11715501_s_at) / Fold change /veh IGFBP7 (11715501_s_at) / RFU REEP3 (11722064_at) / Fold change /veh REEP3 (11722064_at) / RFU IGLL1 (11728026_x_at) / Fold change /veh IGLL1 (11728026_x_at): dose or concentration left out as unconfirmed
# Details: MV-4-11 cells, 48 hours
smiles,measurement,value
Nc1ncn([C@@H]2O[C@H](CO)[C@@H](O)[C@H]2O)c(=O)n1 [azacitidine],RFU IRGQ (11745062_a_at),24.06 RFU
